The values below are quoted from earlier work in US20170071955A1, “METHOD OF STABILIZING WEIGHT AFTER A WEIGHT-LOSS DIET USING PHYTOECDYSONES” (BIOPHYTIS SA, priority 2011, published 2017).

Molecules are shown by their SMILES.

For the data set the following is noted: mammals on a fattening hypercaloric diet.

For `CC(C)(O)CC[C@@H](O)[C@](C)(O)[C@H]1CC[C@@]2(O)C3=CC(=O)[C@@H]4C[C@@H](O)[C@@H](O)C[C@]4(C)[C@H]3CC[C@]12C` [20-hydroxyecdysone], the “effect on body fat” value is given as “reduce the increase of body fat”.
